# Results: patent US9776149B2, “Compositions and methods for preparing nanoformulations and systems for nano-delivery using focused acoustics” (Covaris, Inc., priority 2010, dated 2017)
# Tests used:
# [1] = Particle size of drug suspensions before and after focused acoustic processing (Malvern Mastersizer 2000 / Zetasizer Nano ZS-90); assay type: physicochemical
# Excerpt: Particle size distributions of mixtures and/or nanoformulations described herein may be measured using dynamic laser light scattering, also called Photon correlation spectroscopy (e.g., using Malvern Zetasizer-S, Zetasizer Nano ZS-90 or Mastersizer 2000 instruments; Malvern Instruments Inc.; Southborough Mass.). The Malvern Zetasizer-S instrument was used to estimate average particle sizes with a 4 mW He—Ne laser operating at a wavelength of 633 nm and an avalanche photodiode detector (APD). The average size of particles in a mixture may be estimated as the mean hydrodynamic size. The particle size distribution may be estimated according to polydispersity index (PDI), which is known in the art as a measure of the tightness of a distribution. The average size of particles and the PDI of mixtures and nanoformulations discussed herein are calculated according to the International Standard on dynamic light scattering, ISO 13321.
# Suspension mixtures were prepared in water (deionized and purified by a Barnstead water purification system), methyl cellulose (from Sigma Aldrich) and sodium lauryl sulfate (from Fisher Scientific) for Ibuprofen (from Spectrum Chemicals), Cinnarizine (from Spectrum Chemicals), Indomethacin (from Spectrum Chemicals) and Griseofulvin (from MP Bio). The initial particle sizes of these suspension mixtures was reduced subject to focused acoustic processing using a Covaris SF220 High Performance Formulation Processing System under 150 Watts of power. Particle size distributions were measured using a Malvern Zetasizer Nano ZS-90 in the nanometer particle size range and a Malvern Mastersizer 2000 in the micron particle size range.
# Suspension mixtures included water, 0.5% methyl cellulose and 0.1% sodium lauryl sulfate for Ibuprofen, Cinnarizine, Indomethacin and Griseofulvin at 15 mg/mL for batches of 2 mL, 12 mL and 18 mL. The 2 mL, 12 mL and 18 mL batches were subject to focused acoustic processing for 5 minutes, 5 minutes and 10 minutes, respectively. […] The image 400 prior to exposure to the focused acoustics depicts particles that are substantially larger (e.g., 15-20×) than corresponding particles shown in the image 402 after treatment of the particles to the focused acoustics. Particle size results for each of the four compounds are provided in Table 1 (particle sizes are noted as d90 unless specified otherwise).
# The concentration of Ibuprofen was then varied in respective suspensions at fixed volumes of 2 mL, 12 mL and 18 mL. […] For instance, after 10 minutes of focused acoustic processing, the percent difference of the greatest variation in d90 particle size (i.e., 39.53-34.04=5.49) between concentrations (i.e., for 1 mg/mL, 15 mg/mL and 100 mg/mL) as compared to the initial d90 particle size (i.e., 203.67) is less than 3%.
# Suspension mixtures included water, 0.025% methyl cellulose and 0.1% sodium lauryl sulfate for Ibuprofen, Cinnarizine, Indomethacin and Griseofulvin at 5 mg/mL for 2 mL batches. Each batch was subject to focused acoustic processing for 15 minutes and 30 minutes, respectively. Table 3 lists the average particle size results for each of the four compounds. Within 15 minutes, nano-suspensions were generated with an average particle size ranging between 100 nm and 280 nm for each of the mixtures. Within 30 minutes, an average particle size range of between 20 nm and 97 nm was achieved.
# Using a scale-up system and without changing the mechanical attributes of the particle size reduction process, the Ibuprofen suspension mixture was increased to 250 mL. The flow rate was set to 30 mL/min. […] Suspension aliquots were analyzed by HPLC using a stability-indicating method as a guide. […] Through 60 minutes of focused acoustic processing, the particle size distribution of the suspension was measured to have a relative standard deviation of 0.38%. […]
# [2] = Homogeneity and chemical stability of 250 mL Ibuprofen suspension (sampling at different depths, HPLC); assay type: physicochemical
# Procedure: Using a scale-up system and without changing the mechanical attributes of the particle size reduction process, the Ibuprofen suspension mixture was increased to 250 mL. The flow rate was set to 30 mL/min. […] Suspension aliquots were analyzed by HPLC using a stability-indicating method as a guide. […] Through 60 minutes of focused acoustic processing, the particle size distribution of the suspension was measured to have a relative standard deviation of 0.38%. […] FIG. 7 illustrates the results of such size reduction over time for d90 particle size 410, d50 particle size 412 and d10 particle size 414.
# [3] = 15 mg/mL suspension, 2 mL, 5 min
# [4] = 15 mg/mL suspension, 12 mL, 5 min
# [5] = 15 mg/mL suspension, 18 mL, 10 min
# [6] = 15 mg/mL suspension, Initial (before focused acoustic processing)
# [7] = nano-suspension, 5 mg/mL, 2 mL batch, 15 min
# [8] = nano-suspension, 5 mg/mL, 2 mL batch, 30 min
# [9] = nano-suspension, 5 mg/mL, 2 mL batch, Initial
# [10] = 1, 15 and 100 mg/mL, after 10 minutes of processing
compound,measurement,setting,value
C(=C\c1ccccc1)/CN1CCN(C(c2ccccc2)c2ccccc2)CC1 [Cinnarizine],Particle size (d90),[1]; [3],37.29 microns
same,Particle size (d90),[1]; [4],41.73 microns
same,Particle size (d90),[1]; [5],43.00 microns
same,Particle size (d90),[1]; [6],149.17 microns
same,Average particle size,"[1]; 250 mL scale-up, 1 hour of processing",1 micron
same,Average particle size,"[1]; 250 mL scale-up, about 9 hours",approximately 200 nm
same,Average particle size,"[1]; 250 mL scale-up, starting",approximately 200 microns
same,Average particle size,[1]; [7],280 nm
same,Average particle size,[1]; [8],56.85 nm
same,Average particle size,[1]; [9],149.17 microns
COc1ccc2c(c1)c(CC(=O)O)c(C)n2C(=O)c1ccc(Cl)cc1 [Indomethacin],Particle size (d90),[1]; [3],20.88 microns
same,Particle size (d90),[1]; [4],38.32 microns
same,Particle size (d90),[1]; [5],28.73 microns
same,Particle size (d90),[1]; [6],239.88 microns
same,Average particle size,"[1]; in water, after exposure to focused acoustic energy (FIG. 12)",approximately 5 microns
same,Average particle size,[1]; [7],127.4 nm
same,Average particle size,[1]; [8],20 nm
same,Average particle size,[1]; [9],239.88 microns
COC1=CC(=O)C[C@@H](C)[C@]12Oc1c(Cl)c(OC)cc(OC)c1C2=O [Griseofulvin],Particle size (d90),[1]; [3],16.86 microns
same,Particle size (d90),[1]; [4],31.45 microns
same,Particle size (d90),[1]; [5],31.01 microns
same,Particle size (d90),[1]; [6],44.45 microns
same,Average particle size,[1]; [7],100 nm
same,Average particle size,[1]; [8],90 nm
same,Average particle size,[1]; [9],44.45 microns
CC(C)Cc1ccc(C(C)C(=O)O)cc1 (stereo not drawn) [Ibuprofen],Homogeneity of suspension,[2]; first measured time point of 15 minutes,homogeneous
same,"Chemical stability (impurity growth, HPLC)",[2]; over 60 minutes of processing,no impurity growth
same,% of particles below 20 microns,[1]; [3],(100% of particles
same,Particle size (d90),[1]; [3],12.55 microns
same,% of particles below 40 microns,[1]; [4],(97% of particles
same,Particle size (d90),[1]; [4],33.35 microns
same,% of particles below 40 microns,[1]; [5],(97% of particles
same,Particle size (d90),[1]; [5],39.53 microns
same,% of particles above 40 microns,"[1]; 15 mg/mL suspension, Initial",(97% of particles
same,Particle size (d90),[1]; [6],203.67 microns
same,"Particles prior to focused acoustics larger than particles after treatment (micrographs, FIG. 6)","[1]; 15 mg/mL, 50× magnification",15-20 ×
same,Greatest variation in d90 particle size between concentrations,[1]; [10],5.49
same,Percent difference of greatest variation in d90 between concentrations compared to initial d90,[1]; [10],less than 3%
same,Percentage of particles below 40 microns,"[1]; 250 mL scale-up, 15 min",90%
same,d10,"[1]; 250 mL scale-up, 15 min",6.805 microns
same,d50,"[1]; 250 mL scale-up, 15 min",21.701 microns
same,d90,"[1]; 250 mL scale-up, 15 min",39.726 microns
same,Percentage of particles below 40 microns,"[1]; 250 mL scale-up, 30 min",93.57%
same,d10,"[1]; 250 mL scale-up, 30 min",6.023 microns
same,d50,"[1]; 250 mL scale-up, 30 min",19.055 microns
same,d90,"[1]; 250 mL scale-up, 30 min",36.328 microns
same,Percentage of particles below 40 microns,"[1]; 250 mL scale-up, 45 min",98.31%
same,d10,"[1]; 250 mL scale-up, 45 min",3.583 microns
same,d50,"[1]; 250 mL scale-up, 45 min",16.167 microns
same,d90,"[1]; 250 mL scale-up, 45 min",31.091 microns
same,Percentage of particles below 40 microns,"[1]; 250 mL scale-up, 60 min",98.39%
same,d10,"[1]; 250 mL scale-up, 60 min",3.351 microns
same,d50,"[1]; 250 mL scale-up, 60 min",14.843 microns
same,d90,"[1]; 250 mL scale-up, 60 min",28.005 microns
same,Percentage of particles below 40 microns,"[1]; 250 mL scale-up, Initial",5%
same,d10,"[1]; 250 mL scale-up, Initial",50 microns
same,d50,"[1]; 250 mL scale-up, Initial",97.834 microns
same,d90,"[1]; 250 mL scale-up, Initial",203.67 microns
same,Particle size (d90),"[1]; Table 2, 1 mg/mL, 2 mL, 5 min",12.55 microns
same,Particle size (d90),"[1]; Table 2, 1 mg/mL, 12 mL, 5 min",33.35 microns
same,Particle size (d90),"[1]; Table 2, 1 mg/mL, 18 mL, 10 min",39.53 microns
same,Particle size (d90),"[1]; Table 2, 1 mg/mL, Initial",203.67 microns
same,Particle size (d90),"[1]; Table 2, 15 mg/mL, 2 mL, 5 min",19.03 microns
same,Particle size (d90),"[1]; Table 2, 15 mg/mL, 12 mL, 5 min",34.88 microns
same,Particle size (d90),"[1]; Table 2, 15 mg/mL, 18 mL, 10 min",34.04 microns
same,Particle size (d90),"[1]; Table 2, 15 mg/mL, Initial",203.67 microns
same,Particle size (d90),"[1]; Table 2, 100 mg/mL, 2 mL, 5 min",29.54 microns
same,Particle size (d90),"[1]; Table 2, 100 mg/mL, 12 mL, 5 min",37.78 microns
same,Particle size (d90),"[1]; Table 2, 100 mg/mL, 18 mL, 10 min",35.53 microns
same,Particle size (d90),"[1]; Table 2, 100 mg/mL, Initial",203.67 microns
same,Average particle size,[1]; [7],110 nm
same,Average particle size,[1]; [8],97 nm
same,Average particle size,[1]; [9],203.67 microns
O=c1c(O)c(-c2ccc(O)c(O)c2)oc2cc(O)cc(O)c12 [Quercetin],Average particle size,"[1]; 250 mL in water, no surfactant, 24 degrees C., in under 80 minutes",less than 10 microns
same,Average particle size,"[1]; 250 mL in water, no surfactant, before processing",over 200 microns
